Data: patent US20170340588A1, “MODULATION OF REGULATORY T CELLS VIA G-COUPLED PROTEIN RECEPTOR 43” (President and Fellows of Harvard College, priority 2013, published 2017)

Legend:
[1] = Stability of SCFA mix in mouse water bottle over time; format: physicochemical
Procedure: Mice were treated for 21 days with either sodium acetate (150 mM), sodium propionate (150 mM), sodium butyrate (100 mM) or a SCFA mix (67.5 mM acetate, 40 mM Butyrate, 25.9 mM Propionate) in the drinking water. In in vivo drinking water treatment experiments, control mice received pH and sodium-matched water. At the conclusion of the experiment mice were removed from isolators and processed immediately.

colonic Treg (cTreg) [2] = assay: SPF SCFA intervention; flow cytometry of lymphocytes; format: in vivo, mice
Procedure: To isolate LP lymphocytes, small and large intestines were collected and opened longitudinally and washed with PBS to remove fecal contents. To remove epithelial cells, mucus and fat tissue, intestines were incubated 2 times in EDTA (5 mM)/DTT (1 mM)/Dulbecco's PBS (calcium and magnesium-free) solution (5 ml/colon) for 25 min at 37° C. Intestines were then minced and collagenase-digested two times for 45 min at 37° C. in RPMI containing 1 mg/ml collagenase type VIII (SIGMA), 25 μg/ml DNase I (Roche), 50 μg/ml Dispase (StemCell Technologies) and 0.01M HEPES (StemCell Technologies). The crude cell suspension was loaded onto a 40%/90% Percoll (GE Healthcare) gradient and centrifuged at 720 x g for 25 min at room temperature with acceleration and brake turned off. LP lymphocytes were collected from the 40%/90% interface.
Intracellular staining of the transcription factors Foxp3, Helios and T-bet was performed using the Foxp3 Fix/Perm Buffer Set (Biolegend). For detection of intracellular cytokines, cells were first stimulated for 4 h with 50 ng/ml PMA and 1 μg/ml ionomycin in the presence of Brefeldin A (All obtained from Sigma), followed by staining for surface markers. Cells were then fixed and permeabilized using the Foxp3 Fix/Perm Buffer Set (Biolegend) and stained for intracellular cytokines. The following antibodies were used: PE-labeled anti-Foxp3 (FJK-16s, eBioscience), Pacific Blue-labeled anti-Helios (22F6), PE-, FITC- or APC-labeled anti-CD4 (RM4-5), PECy7-labeled anti-CD3 (145-2C11), PE- or APC-labeled anti-IL-10 (JES5-16E3), PerCP-Cy5.5-labeled anti-IL-17 (TC11-18H10.1), APC- or PE-Cy7-labeled anti-IFNγ (XMG1.2), Pacific Blue-labeled anti-TGFβ1 (TW7-16B4), FITC-, PerCP-Cy5.5 or Pacific Blue-labeled anti-CD45 (30-F11), PerCP-Cy5.5 anti-CD45RB (C363-16A), PE- or FITC-labeled anti-CD25 (PC61), Brilliant Violet 421-labeled anti-CD127 (A7R34), GPR43 rabbit polyclonal (Abcam Catalog *Ab118449, and anti-rabbit IgG DyLight649 (Poly4064). […] Flow cytometry was performed using LSRII and data were analyzed with FlowJo software (TreeStar, Inc.). […]

colonic Treg (cTreg) [3] = assay: Antibiotic (vancomycin) treatment of SPF mice with or without SCFA; format: in vivo; details: Ffar2-/- vs Ffar2+/+ mice
Procedure: Science 341: 1645 (2013). […] The crude cell suspension was loaded onto a 40%/90% Percoll (GE Healthcare) gradient and centrifuged at 720 x g for 25 min at room temperature with acceleration and brake turned off. LP lymphocytes were collected from the 40%/90% interface. Intracellular staining of the transcription factors Foxp3, Helios and T-bet was performed using the Foxp3 Fix/Perm Buffer Set (Biolegend). For detection of intracellular cytokines, cells were first stimulated for 4 h with 50 ng/ml PMA and 1 μg/ml ionomycin in the presence of Brefeldin A (All obtained from Sigma), followed by staining for surface markers. Cells were then fixed and permeabilized using the Foxp3 Fix/Perm Buffer Set (Biolegend) and stained for intracellular cytokines. The following antibodies were used: […] All antibodies were obtained from Biolegend unless otherwise noted. Flow cytometry was performed using LSRII and data were analyzed with FlowJo software (TreeStar, Inc.). Cell sorting was performed using a […] at the Dana-Farber Cancer Institute Flow Cytometry Core.

colonic Treg (cTreg) [4] = assay: Ex vivo RTqPCR of cTreg from in vivo treated mice
Procedure: Science 341: 1645 (2013). […] Treg were isolated from the colon, small intestine, mesenteric lymph node or spleen of C57BL/6 Foxp3^YFP-Cre mice and FACS-sorted based on expression of YFP. […] Real-time (RT)-qPCR was performed using the KAPA SYBR FAST Universal qPCR Kit (KAPA Biosystems) and a Stratagene MX3005P (Agilent Technologies).

T cell transfer colitis = assay: T cell transfer model of colitis; format: in vivo, mice
Source text: At Day 0, Naive CD4+CD25^−CD45RB^hi splenic T cells were FACS-sorted from BALB/c mice and injected i.p. into 6-8 week old BALB/c RAG2^−/− immunodeficient recipients (5×10^5 cells/mouse). At day 10, BALB/c RAG2^−/− immunodeficient recipients received CD4^+ CD25^+ CD45RB^lo splenic Treg cells (75,000/mouse) isolated from BALB/c or C57BL/6 mice Ffar2^+/+ and Ffar2^−/− mice where indicated. Mice were monitored weekly for weight loss and morbidity for 6-9 weeks as per the protocol's experimental endpoint guidelines.
Colons were excised and cleaned with DPBS prior to fixation in 4% PFA and then processed by routine paraffin embedding, sectioning and H&E staining. Colitis scores were determined by J.N.G., who was blinded to the experimental parameters. Each of 4 histologic parameters were scored as absent (0), mild (1), moderate (2), or severe (3): mononuclear cell infiltraton, polymorphonuclear cell infiltration, epithelial hyperplasia, and epithelial injury. The scores for the parameters were summed to generate the cumulative histologic colitis score as previously described.

Ffar2 = molecular target: T1, Ffar2 (Homo sapiens, UniProt O15552); details: among SCFA; Le Poul et al. 2003; cited from earlier work
T1 sequence (O15552 1-330): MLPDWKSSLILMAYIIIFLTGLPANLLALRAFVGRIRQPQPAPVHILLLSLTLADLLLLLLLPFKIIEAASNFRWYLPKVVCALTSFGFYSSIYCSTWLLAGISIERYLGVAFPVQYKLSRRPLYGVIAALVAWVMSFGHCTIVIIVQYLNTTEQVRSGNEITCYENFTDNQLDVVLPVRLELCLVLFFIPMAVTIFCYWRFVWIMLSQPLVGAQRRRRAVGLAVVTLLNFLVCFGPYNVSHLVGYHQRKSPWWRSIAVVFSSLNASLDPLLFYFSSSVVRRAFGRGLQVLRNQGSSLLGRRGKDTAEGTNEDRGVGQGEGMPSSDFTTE

[5] = in vivo treated GF and SPF mice

With `CCC(=O)O` [Propionate, propionic acid] as the compound, how does the “SCFA mix in mouse water bottle over time, Input (Day 0)” value ([1]; Day 0) read?
The value was 200 mM.

And the “SCFA mix in mouse water bottle over time, Day 1” value ([1]; Day 1, input 200 mM)?
The value was 200 mM.

What about the “SCFA mix in mouse water bottle over time, Day 4” value ([1]; Day 4, input 200 mM) of the same compound?
Its value is 199.6 mM.

And the “SCFA mix in mouse water bottle over time, Day 7” value ([1]; Day 7, input 200 mM)?
The value was 201.24 mM.

What about the “SCFA mix in mouse water bottle over time, Day 10” value ([1]; Day 10, input 200 mM) of the same compound?
Its value is 202.9 mM.

What about the “SCFA mix in mouse water bottle over time, Day 14” value ([1]; Day 14, input 200 mM) of the same compound?
Its value is 203.2 mM.

And the “SCFA mix in mouse water bottle over time, Day 90” value ([1]; Day 90, input 200 mM)?
The value was 41.9 mM.

What about the “percentage and number of cTreg” value (colonic Treg (cTreg) [2]; Ffar2+/+ control mice) of the same compound?
The value was “significantly enhanced”.

What about the “percentage and number of cTreg” value (colonic Treg (cTreg) [2]; Ffar2-/- mice) of the same compound?
Its value is “no effect”.

What about the “small intestinal Treg numbers” value (colonic Treg (cTreg) [2]; SPF mice, distal ileum lamina propria) of the same compound?
Its value is “does not affect”.

What about the “restoration of cTreg populations and numbers in the setting of vancomycin treatment” value (colonic Treg (cTreg) [3]) of the same compound?
Its value is “Ffar2 was necessary”.

And the “Foxp3 and IL-10 expression in cTreg” value (colonic Treg (cTreg) [4]; cTreg from GF mice treated in vivo for three weeks)?
The value was “significant increase”.

What about the “levels of chemokine receptor CCR9 or α4β7 integrin in cTreg” value (colonic Treg (cTreg) [4]; [5]) of the same compound?
The value was “not altered”.

And the “levels of the cTreg homing receptor GPR15” value (colonic Treg (cTreg) [4]; [5])?
Its value is “increase”.

And the “effect on intestinal inflammation (colitis scores)” value (T cell transfer colitis; Ffar2+/+ or Ffar2-/- Treg transferred)?
The value was “dependent upon Ffar2 expression in Treg”.

And the “degrees of colonic crypt injury, inflammation, and hyperplasia” value (T cell transfer colitis; H&E, compared to control mice)?
Its value is “reduced degrees”.

And the “frequency and number of colonic LP Foxp3+ Treg” value (T cell transfer colitis; T cell transfer colitis)?
The value was “increase”.

What about the weight loss (T cell transfer colitis; naïve T cells and Treg, vs water alone (P<0.0001)) of the same compound?
Its weight loss is “less severe”.

What about the mean colitis score (T cell transfer colitis; naïve T cells and Treg, water alone 5.1±0.6) of the same compound?
The mean colitis score was 2.0±0.6.

And the “affinity for Ffar2” value (Ffar2)?
Its value is “highest affinity”.
